Bounds are passed on as bounds.

21 compounds from patent publication US20050261332A1, “Sulfonamides and uses thereof” (priority 2004, published 2005) can be followed below.

T1 sequence (Q92847 whole entry, species assumed): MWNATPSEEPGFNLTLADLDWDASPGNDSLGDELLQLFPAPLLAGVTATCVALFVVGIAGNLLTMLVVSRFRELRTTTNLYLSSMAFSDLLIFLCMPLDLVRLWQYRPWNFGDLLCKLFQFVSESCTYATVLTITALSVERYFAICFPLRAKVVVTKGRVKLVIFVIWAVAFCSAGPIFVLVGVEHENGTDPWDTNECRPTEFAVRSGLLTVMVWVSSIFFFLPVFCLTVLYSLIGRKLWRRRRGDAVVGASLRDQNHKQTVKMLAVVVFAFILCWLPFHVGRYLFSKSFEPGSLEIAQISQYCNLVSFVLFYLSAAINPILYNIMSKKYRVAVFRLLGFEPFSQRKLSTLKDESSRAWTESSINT

The experiment addresses T1, GHS-R (Homo sapiens, UniProt Q92847).
T1 construct: expressed in transfected cells; host or cells: COS-7 cells
The experiment can be described thus: GHS-R competition binding assay (Ki of GHS-R antagonizing compounds). Here is the method: One exemplary binding assay is as follows: GHS-R expressing COS-7 cells cultured at a density of 1×10^5 cells per well so that binding is assayed in the range of about 5-8 % binding of the radioactive ligand. For example, the cells can express an endogenous nucleic acid encoding GHS-R or an exogenous nucleic acid encoding GHS-R. Cells transfected with an exogenous nucleic acid encoding GHS-R can be used, e.g., two days, after transfection. Competition binding experiments are performed for 3 hours at 4° C. using 25 pM of ^125I-ghrelin in 0.5 ml of 50 mM HEPES buffer, pH 7.4, supplemented with 1 mM CaCl2, 5 mM MgCl2, and 0.1% (w/v) bovine serum albumin, 40 mg/ml bacitracin. Non-specific binding can be determined as the binding in the presence of […] of unlabeled ghrelin. Cells are washed twice in 0.5 ml of ice-cold buffer and then lysed with 0.5-1 ml of lysis buffer (8 M Urea, 2% NP40 in 3 M acetic acid). After washing and lysis, the bound radioactivity is counted. Assays can be run in duplicate or triplicate, e.g., to provide statistical power.
Values of the dissociation and inhibition constants (Kd and Ki) can be estimated from competition binding experiments using the equation: Kd=IC50-L and Ki=IC50/(1+L/Kd), where L is the concentration of radioactive ligand. Bmax values can be estimated from competition binding experiments using the equation Bmax=B0 IC50/[ligand], where B0 is the specifically bound radioligand.
The term Ki denotes a dissociation constant, usually derived from enzyme kinetics or from competition with a known ligand. A low value points to higher affinity. Turning to `CCN(CC)CCCS(=O)(=O)N[C@H](COCc1ccccc1)C(=O)NCc1ccc(-c2ccccc2CNC(=O)NC)cc1` [Compound 214, (R)-3-Benzyloxy-2-(3-diethylamino-propane-1-sulfonylamino)-N-{2′[(3-methyl-ureido)-methyl]-biphenyl-4-ylmethyl}-propionamide], the Ki lay in the range of 100 to 1000 nM. `CS(=O)(=O)N1CC2(CCN(C(=O)[C@@H](CCCc3ccccc3)NS(=O)(=O)CCCN=[N+]=[N-])CC2)c2ccccc21` [Compound 220, (R)-3-azido-N-(1-(1-(methylsulfonyl)spiro[indoline-3,4′-piperidine]-1′-yl)-1-oxo-5-phenylpentan-2-yl)propane-1-sulfonamide] showed an inhibitory constant (Ki) of 100 to 1000 nM.

Turning to `CC(C)NCCCS(=O)(=O)N[C@H](COCc1ccccc1)C(=O)N1CCC2(CC1)CN(S(C)(=O)=O)c1ccccc12` [Compound 141, (R)-N-(3-(benzyloxy)-1-(1-(methylsulfonyl)spiro[indoline-3,4′-piperidine]-1′-yl)-1-oxopropan-2-yl)-3-(isopropylamino)propane-1-sulfonamide], the Ki is below 100 nM. As for `CS(=O)(=O)N1CC2(CCN(C(=O)[C@@H](COCc3ccccc3)NS(=O)(=O)CCCCl)CC2)c2ccccc21` [Compound 146, (R)-N-(3-(benzyloxy)-1-(1-(methylsulfonyl)spiro[indoline-3,4′-piperidine]-1′-yl)-1-oxopropan-2-yl)-3-chloropropane-1-sulfonamide], the Ki is below 100 nM.

On to `CCN(CC)CCCS(=O)(=O)N[C@H](COCc1ccccc1)C(=O)N1CCC2(C=Cc3ccccc32)CC1` [Compound 165, (R)-N-(3-(benzyloxy)-1-oxo-1-(spiro[indene-1,4′-piperidine]-1′-yl)propan-2-yl)-3-(diethylamino)propane-1-sulfonamide], for which the Ki was below 100 nM.

The compound `CCN(CC)CCCS(=O)(=O)N[C@H](CCc1ccccc1)C(=O)c1ccc(-c2ccccc2CNC(=O)OC(C)(C)C)cc1` [Compound 190, (R)-tert-butyl (4′-(2-(3-(diethylamino)propylsulfonamido)-4-phenylbutanoyl)biphenyl-2-yl)methylcarbamate] yielded a Ki of 100 to 1000 nM. The compound `CCN(CC)CCS(=O)(=O)N[C@H](CCc1ccccc1)C(=O)c1ccc(-c2ccccc2C(N)=O)cc1` [Compound 218, (R)-4′-(2-(2-(diethylamino)ethylsulfonamido)-4-phenylbutanoyl)biphenyl-2-carboxamide] had a Ki above 1000 nM.

As to `C=C(C)C(=O)OCCNC(=O)NCc1ccccc1-c1ccc(C(=O)[C@@H](CCc2ccccc2)NS(=O)(=O)CCCN(CC)CC)cc1` [Compound 195, (R)-2-(3-((4′-(2-(3-(diethylamino)propylsulfonamido)-4-phenylbutanoyl)biphenyl-2-yl)methyl)ureido)ethyl methacrylate], the inhibitory constant (Ki) is below 100 nM. As for `CS(=O)(=O)N1CC2(CCN(C(=O)[C@@H](COCc3ccccc3)NS(=O)(=O)CCCN3CCOCC3)CC2)c2ccccc21` [Compound 142, (R)-N-(3-(benzyloxy)-1-(1-(methylsulfonyl)spiro[indoline-3,4′-piperidine]-1′-yl)-1-oxopropan-2-yl)-3-morpholinopropane-1-sulfonamide], the figure is above 1000 nM; as for `CCN(CC)CCCS(=O)(=O)N[C@H](CCc1ccccc1)C(=O)c1ccc(-c2ccccc2C(N)=O)cc1` [Compound 174, (R)-4′-(2-(3-(diethylamino)propylsulfonamido)-4-phenylbutanoyl)biphenyl-2-carboxamide], 100 to 1000 nM; as for `CCN(CC)CCCS(=O)(=O)N[C@H](COCc1ccccc1)C(=O)c1ccc(-c2ccccc2NC(=O)NC)cc1` [Compound 176, (R)-N-(3-(benzyloxy)-1-(2′-(3-methylureido)biphenyl-4-yl)-1-oxopropan-2-yl)-3-(diethylamino)propane-1-sulfonamide], 100 to 1000 nM.

`CCN(CC)CCCS(=O)(=O)N[C@H](CCc1ccccc1)C(=O)NCc1ccc(-c2ccccc2COC(=O)NC)cc1` [Compound 208, (R)-Methyl-carbamic acid 4′-{[2-(3-diethylamino-propane-1-sulfonylamino)-4-phenyl-butyrylamino]-methyl}-biphenyl-2-ylmethyl ester] gave an inhibition constant (Ki) below 100 nM. `CC(C)(C)NCCS(=O)(=O)N[C@H](COCc1ccccc1)C(=O)N1CCC2(CC1)CN(S(C)(=O)=O)c1ccccc12` [Compound 139, (R)-N-(3-(benzyloxy)-1-(1-(methylsulfonyl)spiro[indoline-3,4′-piperidine]-1′-yl)-1-oxopropan-2-yl)-2-(tert-butylamino)ethanesulfonamide]: the Ki lay within 100 to 1000 nM. Regarding `CC(C)(C)NCCCS(=O)(=O)N[C@H](COCc1ccccc1)C(=O)N1CCC2(CC1)CN(S(C)(=O)=O)c1ccccc12` [Compound 143, (R)-N-(3-(benzyloxy)-1-(1-(methylsulfonyl)spiro[indoline-3,4′-piperidine]-1′-yl)-1-oxopropan-2-yl)-3-(tert-butylamino)propane-1-sulfonamide], the Ki fell in the range of 100 to 1000 nM. Consider `CS(=O)(=O)N1CC2(CCN(C(=O)[C@@H](COCc3ccccc3)NS(=O)(=O)CCN3CCC3)CC2)c2ccccc21` [Compound 134, (R)-2-(azetidin-1-yl)-N-(3-(benzyloxy)-1-(1-(methylsulfonyl)spiro[indoline-3,4′-piperidine]-1′-yl)-1-oxopropan-2-yl)ethanesulfonamide], for which the Ki was above 1000 nM. Consider `CS(=O)(=O)N1CC2(CCN(C(=O)[C@@H](COCc3ccccc3)NS(=O)(=O)CCCN3CCCC3)CC2)c2ccccc21` [Compound 152, (R)-N-(3-(benzyloxy)-1-(1-(methylsulfonyl)spiro[indoline-3,4′-piperidine]-1′-yl)-1-oxopropan-2-yl)-3-(pyrrolidin-1-yl)propane-1-sulfonamide], for which the inhibition constant (Ki) was below 100 nM.

The compound `CCN(CC)CCCS(=O)(=O)N[C@H](CCc1ccccc1)C(=O)c1ccc(-c2ccccc2COC(=O)NC)cc1` [Compound 173, (R)-(4′-(2-(3-(diethylamino)propylsulfonamido)-4-phenylbutanoyl)biphenyl-2-yl)methyl methylcarbamate] registered a Ki below 100 nM. `CCN(CC)CCCS(=O)(=O)N[C@H](COCc1ccccc1)C(=O)c1ccc(-c2ccccc2C(N)=O)cc1` [Compound 177, (R)-4′-[3-Benzyloxy-2-(3-diethylamino-propane-1-sulfonylamino)-propionyl]-biphenyl-2-carboxylic acid amide]: the Ki is 100 to 1000 nM. As for `CCN(CC)CCCS(=O)(=O)N[C@H](CCc1ccccc1)C(=O)NCc1ccc(-c2ccccc2CNC(=O)OC(C)(C)C)cc1` [Compound 182, (R)-(4′-{[2-(3-Diethylamino-propane-1-sulfonylamino)-4-phenyl-butyrylamino]-methyl}-biphenyl-2-ylmethyl)-carbamic acid tert-butyl ester], the figure is 100 to 1000 nM; as for `CCN(CC)CCCS(=O)(=O)N[C@H](CCc1ccccc1)C(=O)c1ccc(-c2ccccc2NC(=O)OC(C)(C)C)cc1` [Compound 167, (R)-tert-butyl 4′-(2-(3-(diethylamino)propylsulfonamido)-4-phenylbutanoyl)biphenyl-2-ylcarbamate], 100 to 1000 nM.

Turning to `CN1CCC(S(=O)(=O)N[C@H](COCc2ccccc2)C(=O)N2CCC3(C=Cc4ccccc43)CC2)CC1` [Compound 147, (R)-N-(3-(benzyloxy)-1-oxo-1-(spiro[indene-1,4′-piperidine]-1′-yl)propan-2-yl)-1-methylpiperidine-4-sulfonamide], the Ki was 100 to 1000 nM.
